Reference: ChEMBL document CHEMBL1151886, “Synthesis and SAR of hydroxyethylamine based phenylcarboxyamides as inhibitors of BACE” (Bioorg Med Chem Lett, 2009)

target: T1, Beta-secretase 1 (Homo sapiens, UniProt P56817); assay: Inhibition of BACE1 in human HEK293 cells overexpressing APP with Swedish mutation assessed as inhibition of amyloid beta 40 production; format: cell-based; conditions: read-out: IC50
T1 sequence (P56817 whole entry): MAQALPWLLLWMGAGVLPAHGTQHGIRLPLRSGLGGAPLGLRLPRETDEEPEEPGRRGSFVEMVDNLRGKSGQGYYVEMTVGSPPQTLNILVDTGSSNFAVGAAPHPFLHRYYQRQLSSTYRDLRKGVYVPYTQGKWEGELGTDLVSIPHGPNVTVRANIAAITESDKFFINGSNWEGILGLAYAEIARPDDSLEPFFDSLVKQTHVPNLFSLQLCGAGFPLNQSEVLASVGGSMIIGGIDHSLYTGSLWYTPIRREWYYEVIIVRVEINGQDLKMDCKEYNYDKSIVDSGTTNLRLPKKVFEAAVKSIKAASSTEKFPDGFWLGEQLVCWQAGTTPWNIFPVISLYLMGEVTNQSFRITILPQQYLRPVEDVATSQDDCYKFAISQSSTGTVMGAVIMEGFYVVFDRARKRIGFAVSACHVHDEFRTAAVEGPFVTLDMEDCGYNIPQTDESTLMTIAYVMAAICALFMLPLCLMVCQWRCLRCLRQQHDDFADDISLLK

| Compound | IC50 |
| --- | --- |
| COc1cccc(CNC[C@@H](O)[C@H](Cc2cc(F)cc(F)c2)NC(=O)c2cccc(C(=O)NC(C)c3ccc(F)cc3)c2)c1 (stereo partly specified) | 266 nM |
| COc1cccc(CNC[C@@H](O)[C@H](Cc2cc(F)cc(F)c2)NC(=O)c2cc(C(C)=O)cc(N3CCCCS3(=O)=O)c2)c1 | 248 nM |
| COc1cccc(CNC[C@@H](O)[C@H](Cc2cc(F)cc(F)c2)NC(=O)c2cc(/C(C)=N\OCC(C)C)cc(N3CCCCS3(=O)=O)c2)c1 | 2100 nM |
| CCCN(CCC)C(=O)c1cc(Oc2ccccc2OC)cc(C(=O)N[C@@H](Cc2cc(F)cc(F)c2)[C@H](O)CNCc2cccc(OC)c2)c1 | > 666 nM |
| CCCN(CCC)C(=O)c1cc(Oc2ccc(OC)cc2)cc(C(=O)N[C@@H](Cc2cc(F)cc(F)c2)[C@H](O)CNCc2cccc(OC)c2)c1 | 412 nM |
| COc1cccc(CNC[C@@H](O)[C@H](Cc2cc(F)cc(F)c2)NC(=O)c2cc(/C(C)=N\OCC(C)C)cc(N(C)S(C)(=O)=O)c2)c1 | > 666 nM |
| CO/N=C(/C)c1cc(C(=O)NC(C)c2ccc(F)cc2)cc(C(=O)N[C@@H](Cc2cc(F)cc(F)c2)[C@H](O)CNCc2cccc(OC)c2)c1 (stereo partly specified) | 276 nM |
| C=CCO/N=C(/C)c1cc(C(=O)NC(C)c2ccc(F)cc2)cc(C(=O)N[C@@H](Cc2cc(F)cc(F)c2)[C@H](O)CNCc2cccc(OC)c2)c1 (stereo partly specified) | 530 nM |
| CCCN(CCC)C(=O)c1cc(C(=O)N[C@@H](Cc2cc(F)cc(F)c2)[C@H](O)CNCc2cccc(OC)c2)cc(/C(C)=N\OCC(C)C)c1 | 367 nM |
| CCCO/N=C(/C)c1cc(C(=O)N[C@@H](Cc2cc(F)cc(F)c2)[C@H](O)CNCc2cccc(OC)c2)cc(N(C)S(C)(=O)=O)c1 | 217 nM |
| COc1cccc(CNC[C@@H](O)[C@H](Cc2cc(F)cc(F)c2)NC(=O)c2cc(/C(C)=N\OCc3ccccc3)cc(N3CCCCS3(=O)=O)c2)c1 | 821 nM |
| COc1cccc(CNC[C@@H](O)[C@H](Cc2cc(F)cc(F)c2)NC(=O)c2cccc(C(=O)N[C@H](C)c3ccccc3)c2)c1 | 198 nM |
| COc1cccc(CNC[C@@H](O)[C@H](Cc2cc(F)cc(F)c2)NC(=O)c2cc(/C(C)=N\OCc3ccccc3)cc(N(C)S(C)(=O)=O)c2)c1 | > 333 nM |
| C=CCO/N=C(/C)c1cc(C(=O)N[C@@H](Cc2cc(F)cc(F)c2)[C@H](O)CNCc2cccc(OC)c2)cc(C(=O)N[C@H](C)c2ccccc2)c1 | 500 nM |

Stronger by IC50, values ahead:

| IC50 | Compound |
| --- | --- |
| 82 nM | CO/N=C(/C)c1cc(C(=O)N[C@@H](Cc2cc(F)cc(F)c2)[C@H](O)CNCc2cccc(OC)c2)cc(C(=O)N[C@H](C)c2ccccc2)c1 |
| 184 nM | CCCO/N=C(/C)c1cc(C(=O)N[C@@H](Cc2cc(F)cc(F)c2)[C@H](O)CNCc2cccc(OC)c2)cc(N(c2ccccc2)S(C)(=O)=O)c1 |
| 91 nM | COc1cccc(CNC[C@@H](O)[C@H](Cc2cc(F)cc(F)c2)NC(=O)c2cc(/C(C)=N\O)cc(N(c3ccccc3)S(C)(=O)=O)c2)c1 |
| 73 nM | COc1cccc(CNC[C@@H](O)[C@H](Cc2cc(F)cc(F)c2)NC(=O)c2cc(C(C)=O)cc(C(=O)N[C@H](C)c3ccccc3)c2)c1 |
| 94 nM | CCCN(CCC)C(=O)c1cc(Oc2ccc(F)cc2)cc(C(=O)N[C@@H](Cc2cc(F)cc(F)c2)[C@H](O)CNCc2cccc(OC)c2)c1 |
| 86 nM | CO/N=C(\C)c1cc(C(=O)N[C@@H](Cc2cc(F)cc(F)c2)[C@H](O)CNCc2cccc(OC)c2)cc(N(c2ccccc2)S(C)(=O)=O)c1 |
| 30 nM | CCCN(CCC)C(=O)c1cc(Sc2ccc(OC)cc2)cc(C(=O)N[C@@H](Cc2cc(F)cc(F)c2)[C@H](O)CNCc2cccc(OC)c2)c1 |
| 52 nM | CO/N=C(\C)c1cc(C(=O)N[C@@H](Cc2cc(F)cc(F)c2)[C@H](O)CNCc2cccc(OC)c2)cc(N(C)S(C)(=O)=O)c1 |
| 148 nM | CCCN(CCC)C(=O)c1cc(C(=O)N[C@@H](Cc2cc(F)cc(F)c2)[C@H](O)CNCc2cccc(OC)c2)cc(S(=O)(=O)c2ccccc2)c1 |
| 34 nM | CCCN(CCC)C(=O)c1cc(CC(C)O)cc(C(=O)N[C@@H](Cc2cc(F)cc(F)c2)[C@H](O)CNCc2cccc(OC)c2)c1 (stereo partly specified) |
| 80 nM | CCCN(CCC)C(=O)c1cccc(C(=O)N[C@@H](Cc2cc(F)cc(F)c2)[C@H](O)CNCc2cccc(OC)c2)c1 |
| 91 nM | COc1cccc(CNC[C@@H](O)[C@H](Cc2cc(F)cc(F)c2)NC(=O)c2cc(C(C)=O)cc(C(=O)NC(C)c3ccc(F)cc3)c2)c1 (stereo partly specified) |
| 88 nM | COc1cccc(CNC[C@@H](O)[C@H](Cc2cc(F)cc(F)c2)NC(=O)c2cc(/C(C)=N\OCc3ccccc3)cc(N(c3ccccc3)S(C)(=O)=O)c2)c1 |
| 182 nM | COc1cccc(CNC[C@@H](O)[C@H](Cc2cc(F)cc(F)c2)NC(=O)c2cccc(N3CCCCS3(=O)=O)c2)c1 |

target: T1, Beta-secretase 1; assay: Binding affinity to BACE assessed as displacement of [3H]BMS-599240; conditions: read-out: IC50

| Compound | IC50 |
| --- | --- |
| COc1cccc(CNC[C@@H](O)[C@H](Cc2cc(F)cc(F)c2)NC(=O)c2cccc(C(=O)NC(C)c3ccc(F)cc3)c2)c1 (stereo partly specified) | 166 nM |
| COc1cccc(CNC[C@@H](O)[C@H](Cc2cc(F)cc(F)c2)NC(=O)c2cc(C(C)=O)cc(N3CCCCS3(=O)=O)c2)c1 | 90 nM |
| COc1cccc(CNC[C@@H](O)[C@H](Cc2cc(F)cc(F)c2)NC(=O)c2cc(/C(C)=N\OCC(C)C)cc(N3CCCCS3(=O)=O)c2)c1 | 428 nM |
| CCCN(CCC)C(=O)c1cc(Oc2ccccc2OC)cc(C(=O)N[C@@H](Cc2cc(F)cc(F)c2)[C@H](O)CNCc2cccc(OC)c2)c1 | 54 nM |
| CCCN(CCC)C(=O)c1cc(Oc2ccc(OC)cc2)cc(C(=O)N[C@@H](Cc2cc(F)cc(F)c2)[C@H](O)CNCc2cccc(OC)c2)c1 | 10 nM |
| COc1cccc(CNC[C@@H](O)[C@H](Cc2cc(F)cc(F)c2)NC(=O)c2cc(/C(C)=N\OCC(C)C)cc(N(C)S(C)(=O)=O)c2)c1 | 173 nM |
| CO/N=C(/C)c1cc(C(=O)NC(C)c2ccc(F)cc2)cc(C(=O)N[C@@H](Cc2cc(F)cc(F)c2)[C@H](O)CNCc2cccc(OC)c2)c1 (stereo partly specified) | 24 nM |
| C=CCO/N=C(/C)c1cc(C(=O)NC(C)c2ccc(F)cc2)cc(C(=O)N[C@@H](Cc2cc(F)cc(F)c2)[C@H](O)CNCc2cccc(OC)c2)c1 (stereo partly specified) | 168 nM |
| CCCN(CCC)C(=O)c1cc(C(=O)N[C@@H](Cc2cc(F)cc(F)c2)[C@H](O)CNCc2cccc(OC)c2)cc(/C(C)=N\OCC(C)C)c1 | 55 nM |
| CCCO/N=C(/C)c1cc(C(=O)N[C@@H](Cc2cc(F)cc(F)c2)[C@H](O)CNCc2cccc(OC)c2)cc(N(C)S(C)(=O)=O)c1 | 59 nM |
| COc1cccc(CNC[C@@H](O)[C@H](Cc2cc(F)cc(F)c2)NC(=O)c2cc(/C(C)=N\OCc3ccccc3)cc(N3CCCCS3(=O)=O)c2)c1 | 31 nM |
| COc1cccc(CNC[C@@H](O)[C@H](Cc2cc(F)cc(F)c2)NC(=O)c2cccc(C(=O)N[C@H](C)c3ccccc3)c2)c1 | 89 nM |
| COc1cccc(CNC[C@@H](O)[C@H](Cc2cc(F)cc(F)c2)NC(=O)c2cc(/C(C)=N\OCc3ccccc3)cc(N(C)S(C)(=O)=O)c2)c1 | 9 nM |
| C=CCO/N=C(/C)c1cc(C(=O)N[C@@H](Cc2cc(F)cc(F)c2)[C@H](O)CNCc2cccc(OC)c2)cc(C(=O)N[C@H](C)c2ccccc2)c1 | 86 nM |

Now from value to compound:

| IC50 | Compound |
| --- | --- |
| 32 nM | CO/N=C(/C)c1cc(C(=O)N[C@@H](Cc2cc(F)cc(F)c2)[C@H](O)CNCc2cccc(OC)c2)cc(C(=O)N[C@H](C)c2ccccc2)c1 |
| 6 nM | CCCO/N=C(/C)c1cc(C(=O)N[C@@H](Cc2cc(F)cc(F)c2)[C@H](O)CNCc2cccc(OC)c2)cc(N(c2ccccc2)S(C)(=O)=O)c1 |
| 9 nM | COc1cccc(CNC[C@@H](O)[C@H](Cc2cc(F)cc(F)c2)NC(=O)c2cc(/C(C)=N\O)cc(N(c3ccccc3)S(C)(=O)=O)c2)c1 |
| 20 nM | COc1cccc(CNC[C@@H](O)[C@H](Cc2cc(F)cc(F)c2)NC(=O)c2cc(C(C)=O)cc(C(=O)N[C@H](C)c3ccccc3)c2)c1 |
| 22 nM | CCCN(CCC)C(=O)c1cc(Oc2ccc(F)cc2)cc(C(=O)N[C@@H](Cc2cc(F)cc(F)c2)[C@H](O)CNCc2cccc(OC)c2)c1 |
| 10 nM | CO/N=C(\C)c1cc(C(=O)N[C@@H](Cc2cc(F)cc(F)c2)[C@H](O)CNCc2cccc(OC)c2)cc(N(c2ccccc2)S(C)(=O)=O)c1 |
| 27 nM | CCCN(CCC)C(=O)c1cc(Sc2ccc(OC)cc2)cc(C(=O)N[C@@H](Cc2cc(F)cc(F)c2)[C@H](O)CNCc2cccc(OC)c2)c1 |
| 60 nM | CO/N=C(\C)c1cc(C(=O)N[C@@H](Cc2cc(F)cc(F)c2)[C@H](O)CNCc2cccc(OC)c2)cc(N(C)S(C)(=O)=O)c1 |
| 11 nM | CCCN(CCC)C(=O)c1cc(C(=O)N[C@@H](Cc2cc(F)cc(F)c2)[C@H](O)CNCc2cccc(OC)c2)cc(S(=O)(=O)c2ccccc2)c1 |
| 16 nM | CCCN(CCC)C(=O)c1cc(CC(C)O)cc(C(=O)N[C@@H](Cc2cc(F)cc(F)c2)[C@H](O)CNCc2cccc(OC)c2)c1 (stereo partly specified) |
| 31 nM | CCCN(CCC)C(=O)c1cccc(C(=O)N[C@@H](Cc2cc(F)cc(F)c2)[C@H](O)CNCc2cccc(OC)c2)c1 |
| 51 nM | COc1cccc(CNC[C@@H](O)[C@H](Cc2cc(F)cc(F)c2)NC(=O)c2cc(C(C)=O)cc(C(=O)NC(C)c3ccc(F)cc3)c2)c1 (stereo partly specified) |
| 12 nM | COc1cccc(CNC[C@@H](O)[C@H](Cc2cc(F)cc(F)c2)NC(=O)c2cc(/C(C)=N\OCc3ccccc3)cc(N(c3ccccc3)S(C)(=O)=O)c2)c1 |
| 74 nM | COc1cccc(CNC[C@@H](O)[C@H](Cc2cc(F)cc(F)c2)NC(=O)c2cccc(N3CCCCS3(=O)=O)c2)c1 |
